This is an account of results in patent publication US8058313B2, “Alpha, beta-unsaturated sulfones, sulfoxides, sulfonimides, sulfinimides, acylsulfonamides and acylsulfinamides and therapeutic uses thereof” (Temple University—Of The Commonwealth System of Higher …, priority 2004, dated 2011).

The GI50 is the concentration at which growth is held to half of that of the control. One may read the pIC50 as the IC50 on a negative log10 scale, so that one unit is a factor of ten.

The test system of experiment [1] is androgen receptor negative prostate (DU145) cell line. As to the kind of experiment: Effect on growth of human tumor cells in culture (viable cells, Trypan blue exclusion). Conditions: five concentrations (1-100 μM range), read from dose response curve. In kind it is cell-based. As to the method:
The effect of compounds according to Formula I on the growth of human tumor cells in culture was evaluated using the androgen receptor negative prostate (DU145) cell line. The cell culture was maintained at 37° C. in a humidified atmosphere of 5% CO2.
Cells were treated with compounds according to Formula I at five different concentrations (1-100 μM range) for each compound. For comparison, the cells were treated with curcumin at the same concentrations. The dose response was established by determining the number of viable cells after 96 h of continuous treatment against each of the different test concentrations of each compound. The determination of viable cells was done by the Trypan blue exclusion method. Activity for each compound at each concentration is reported as a percentage of cells that remain viable.
The GI50 values were determined by direct extrapolation from each dose response curve.

The target of experiment [2] is recombinant FLT1 active protein (Homo sapiens, UniProt P17948). Kind of experiment: In vitro filter assay for FLT1 kinase activity. The conditions noted are these: 30 min preincubation at room temperature, kinase reaction 20 min at 30° C., 100 μM ATP, 250 μM IGF-1Rtide, triplicate. The format is biochemical. As to the method:
The inhibition of FLT1 by compounds according to Formula I was assessed by employing an in vitro filter assay for FLT1.
Compounds 1-15 were prepared as 10 mmol stock solutions in DMSO. Curcumin was also prepared as a 10 mmol stock solution for testing in the FLT1 assay. Five units of recombinant FLT1 active protein was incubated with different concentrations of each compound in a 15 μl reaction mixture (50 mM HEPES, 10 mM MgCl2, 1 mM EDTA, 2 mM Dithiothreitol 0.01% NP-40 pH 7.5) for 30 minutes at room temperature (25° C). Kinase reactions were performed for 20 minutes at 30° C. in a volume of 20 μl (15 μl enzyme+compound of Formula I, 2 μl 1 mM ATP (100 μM final concentration), 2 μl of γ 32^pATP (40 μci final concentration) and 250 μM of IGF-1Rtide. 10 μl aliquots of the kinase reaction were spotted onto the center of a filter (2 cm×2 cm P81 phosphocellulose paper square). After 30 seconds, the filters were washed with 0.75% phosphoric acid (3×5 minutes) and once with acetone (5 minutes). The wet filters were transferred into a scintillation vial containing scintillation cocktail ^32P (5 mL). Radioactivity was determined using a scintillation counter. Control analyses were performed with DMSO stock solutions containing no compound. Binding values were corrected for non-specific binding by performing duplicate assays in the absence of FLT1 enzyme and subtracting the non-specific binding values from the values obtained in the presence of FLT1. Counts per minute (CPM) of aliquots containing a compound of Formula I were compared with CPM of control samples. The kinase activity is expressed in percent of the maximal kinase activity. […] All assays were carried out in triplicate.

The mark [3] stands for this setting: Homo sapiens, DU-145, 96 h continuous treatment.

pIC50: −log10 of the molar value.

Sequence of recombinant FLT1 active protein (P17948 27-1338): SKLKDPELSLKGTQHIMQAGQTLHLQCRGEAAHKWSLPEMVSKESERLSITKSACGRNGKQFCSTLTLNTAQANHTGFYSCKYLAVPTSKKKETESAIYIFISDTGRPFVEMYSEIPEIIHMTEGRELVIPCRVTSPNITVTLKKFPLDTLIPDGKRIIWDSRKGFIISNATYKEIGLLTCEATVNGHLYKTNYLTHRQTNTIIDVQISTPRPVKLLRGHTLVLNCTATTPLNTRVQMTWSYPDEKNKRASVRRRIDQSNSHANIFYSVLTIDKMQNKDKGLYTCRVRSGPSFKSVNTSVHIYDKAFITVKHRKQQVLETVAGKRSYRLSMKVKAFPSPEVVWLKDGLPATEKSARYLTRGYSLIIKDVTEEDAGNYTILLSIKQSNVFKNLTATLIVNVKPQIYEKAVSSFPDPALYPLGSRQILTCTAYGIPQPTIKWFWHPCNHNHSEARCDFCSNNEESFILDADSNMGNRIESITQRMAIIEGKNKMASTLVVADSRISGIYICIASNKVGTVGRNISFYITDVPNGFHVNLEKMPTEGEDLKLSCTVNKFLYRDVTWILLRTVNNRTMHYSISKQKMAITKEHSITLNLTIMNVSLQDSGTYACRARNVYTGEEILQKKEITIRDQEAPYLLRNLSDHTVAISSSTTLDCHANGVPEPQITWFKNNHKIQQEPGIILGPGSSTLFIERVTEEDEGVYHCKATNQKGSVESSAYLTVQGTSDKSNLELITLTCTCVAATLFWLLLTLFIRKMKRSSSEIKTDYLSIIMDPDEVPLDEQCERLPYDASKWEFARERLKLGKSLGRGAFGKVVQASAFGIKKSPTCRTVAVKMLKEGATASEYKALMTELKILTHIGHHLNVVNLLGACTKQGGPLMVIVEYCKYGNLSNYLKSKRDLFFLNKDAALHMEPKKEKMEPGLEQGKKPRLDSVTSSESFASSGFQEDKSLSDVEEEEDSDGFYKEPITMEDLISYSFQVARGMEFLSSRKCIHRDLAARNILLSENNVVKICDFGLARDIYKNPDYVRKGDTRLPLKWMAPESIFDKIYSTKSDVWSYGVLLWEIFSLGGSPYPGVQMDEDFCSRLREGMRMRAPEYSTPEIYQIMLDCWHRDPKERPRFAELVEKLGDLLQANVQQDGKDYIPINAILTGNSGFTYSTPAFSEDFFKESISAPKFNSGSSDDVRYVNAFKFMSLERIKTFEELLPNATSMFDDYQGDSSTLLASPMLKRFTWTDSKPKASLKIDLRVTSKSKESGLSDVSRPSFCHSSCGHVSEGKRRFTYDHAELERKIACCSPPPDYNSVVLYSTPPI

As for `COc1cc(/C=C/S(=O)(=O)CS(=O)(=O)/C=C/c2ccc(O)c(OC)c2)ccc1O` [Example 1, 4-((1E)-2-(((E)-4-Hydroxy-3-methoxystyrylsulfonyl)methylsulfonyl)vinyl)-2-methoxyphenol], in experiment [1] (setting [3]), the GI50 was below 10 µM. In addition, the pIC50 in experiment [2] is 5.41.

With `O=S(=O)(/C=C/c1ccc(Cl)cc1)CS(=O)(=O)/C=C/c1ccc(Cl)cc1` [Example 6, bis((E)-4-Chlorostyrylsulfonyl)methane], in experiment [1] (setting [3]), the GI50 is 10 to 25 µM. For the same compound, in experiment [2], the pIC50 is 4.29.

In experiment [1] (setting [3]), `O=S(=O)(/C=C/c1ccc(F)cc1F)CS(=O)(=O)/C=C/c1ccc(F)cc1F` [Example 4, bis((E)-2,4-Difluorostyrylsulfonyl)methane] had a GI50 below 10 µM. For the same compound, the pIC50 in experiment [2] was 5.65.

Consider `O=S(=O)(/C=C/c1ccc(I)cc1)CS(=O)(=O)/C=C/c1ccc(I)cc1` [Example 10, bis((E)-4-Iodostyrylsulfonyl)methane], for which, in experiment [2], the pIC50 was below 5.00.

Compound “bis((E)-Perfluorostyrylsulfonyl)methane [Example 13]” displayed a GI50 in experiment [1] (96 h continuous treatment) below 2.5 µM. Moreover, in experiment [2], the negative-log IC50 (pIC50) was 6.38.

For `O=S(=O)(/C=C/c1ccccc1)CS(=O)(=O)/C=C/c1ccccc1` [Example 9, bis((E)-Styrylsulfonyl)methane], the GI50 in experiment [1] (setting [3]) was 10 to 25 µM. Besides, in experiment [2], the negative-log IC50 (pIC50) is below 4.00.

Compound “4-((1E)-2-(((E)-4-hydroxy-2,6-dimethoxystyrylsulfonyl)methylsulfonyl)vinyl)-3,5-dimethoxyphenol. [Example 15]” gave a GI50 in experiment [1] (96 h continuous treatment) below 1 µM. In addition, in experiment [2], the negative-log IC50 (pIC50) is 7.11.

For the compound `O=S(=O)(/C=C/c1ccc(F)cc1)CS(=O)(=O)/C=C/c1ccc(F)cc1` [Example 11, bis((E)-4-Fluorostyrylsulfonyl)methane], the concentration for 50% growth inhibition (GI50) in experiment [1] (setting [3]) is below 10 µM. In addition, the pIC50 in experiment [2] is below 4.00.

Regarding `N#Cc1ccc(/C=C/S(=O)(=O)CS(=O)(=O)/C=C/c2ccc(C#N)cc2F)c(F)c1` [Example 3, 4-((1E)-2-(((E)-2-Fluoro-4-cyanostyrylsulfonyl)methylsulfonyl)vinyl)-3-fluorobenzonitrile], the GI50 in experiment [1] (setting [3]) fell in the range of 25 to 50 µM. Moreover, the pIC50 in experiment [2] was 6.79.

Compound `COc1cccc(OC)c1/C=C/S(=O)(=O)CS(=O)(=O)/C=C/c1c(OC)cccc1OC` [Example 5, bis((E)-2,6-Dimethoxystyrylsulfonyl)methane] registered a concentration for 50% growth inhibition (GI50) in experiment [1] (setting [3]) of 25 to 50 µM. In experiment [2], the negative logarithm of the IC50 (pIC50) was 4.89.

Take `COc1cc(/C=C/C(=O)CC(=O)/C=C/c2ccc(O)c(OC)c2)ccc1O` [curcumin, reference compound]: halving of growth in experiment [1] (setting [3]) (GI50) required 35 µM. The negative logarithm of the IC50 (pIC50) in experiment [2] is 4.46.

For the compound `COc1cc(OC)c(/C=C/S(=O)(=O)CS(=O)(=O)/C=C/c2c(OC)cc(OC)cc2OC)c(OC)c1` [Example 2, bis((E)-2,4,6-Trimethoxystyrylsulfonyl)methane], the GI50 in experiment [1] (setting [3]) is 75 µM. The pIC50 in experiment [2] was 6.55.

Compound `COc1cc(/C=C/S(=O)(=O)CS(=O)(=O)/C=C/c2cc(OC)c(OC)c(OC)c2)cc(OC)c1OC` [Example 14, bis((E)-3,4,5-Trimethoxystyrylsulfonyl)methane] registered a GI50 in experiment [1] (setting [3]) of 7.5 µM. For the same compound, the negative-log IC50 (pIC50) in experiment [2] is below 5.00.

Take `O=S(=O)(/C=C/c1ccc(Br)cc1)CS(=O)(=O)/C=C/c1ccc(Br)cc1` [Example 7, bis((E)-4-Bromostyrylsulfonyl)methane]: the GI50 in experiment [1] (setting [3]) was below 10 µM. The pIC50 in experiment [2] is 6.50.

`O=S(=O)(/C=C/c1ccsc1)CS(=O)(=O)/C=C/c1ccsc1` [Example 8, bis((E)-2-(Thiophen-3-yl)vinylsulfonyl)methane] displayed a GI50 in experiment [1] (setting [3]) below 10 µM. Moreover, the pIC50 in experiment [2] was 4.95.
